Data on six compounds can be found in article PMC6453917, “On resin click-chemistry-mediated synthesis of novel enkephalin analogues with potent anti-nociceptive activity” (Scientific Reports, 2019).

Data set [1] concerns CD-1 male mice. The data set can be described thus: Hot plate test (thermal nociception). It counts as in vivo. The following applies: i.v., 23 μmol.kg−1, mice. (In hot-plate and tail-flick tests a longer latency is read as antinociception.)
The subject of data set [2] is CD-1 male mice. Briefly: Formalin test. It counts as in vivo. The note with it: s.c., 100 nmol, 15 min before formalin. The text has this: The formalin test involves moderate and continuous pain generated by an injured tissue, and the measured response is the time the animals spend licking the injected paw. […] The early phase is caused predominantly by δ-fiber activation, due to a direct effect on nociceptors, while the late phase appears to be an inflammatory response, involving the unmyelinated C-fibre[44].
CD-1 male mice (Harlan, Italy) weighing 25–30 g were used in all the experiments. Before the experimental sessions, the mice were maintained in colony, housed in cages (7 mice per cage) under standard light/dark cycle (from 7:00 AM to 7:00 PM), temperature (21 ± 1 °C) and relative humidity (60 ± 10%) for at least 1 week. Food and water were available ad libitum. […]
Subcutaneous injection of a dilute solution of formalin (1%, 20 μL/paw) into the mice hind paw evoked nociceptive behavioural responses, such as licking, biting the injected paw or both, which are considered indices of nociception. […] The total time the animal spent licking or biting its paw during the early and late phase of formalin-induced nociception was recorded. […]

For data set [3] the following is noted: cited from earlier work.
The target in data set [4] is T1, human KOP (Homo sapiens, UniProt P41145).
T1 construct: expressed in transfected cells; host or cells: CHO cells (membrane preparations)
The data set can be described thus: Competition radioligand binding vs 3H-diprenorphine, KOP.

Data set [5] addresses T1, human KOP. The data set can be described thus: 35S-GTPγS coupling assay, KOP. More on the design: Emax: dose or concentration left out as unconfirmed. The following applies: for Emax: read-out: KOP EMax (in parentheses). The format is biochemical. For orientation: GTPγS resists hydrolysis and so accumulates on activated G proteins.
Data set [6] in a line: Plasma stability assay. It counts as in vitro ADME. The note with it: human plasma, 37 °C, read-out: degradation half-life (t1/2). The procedure:
A plasma stability assay was performed by incubation of compounds in human plasma at a chosen initial concentration (i.e. 5 μM) at 37 °C. The aliquots of the incubated plasma samples were taken at T0 (at the beginning) and at T2 (after 4 hours). Collected samples were spiked with cold acetonitrile to precipitate proteins and prevent the compound from further decomposition. The assay was repeated in triplicate. Plasma aliquots were centrifuged and the supernatant collected and analyzed by LC-MS technique. The instrument responses were referenced to the zero time-point sample (as 100%) in order to determine the percentage of compound remaining after incubation at a given time point. The half-life parameter was calculated from linear regression of time course data.
Plasma and working solutions of experimental and control compounds (at appropriate concentrations) were warmed to 37 °C. 99 µL of plasma was dispensed into a pre-labeled 96-well plate (in triplicate per time-point). Then 1 µL of test compound and reference compound were transferred to wells filled by plasma. 200 µL of cold acetonitrile was added immediately into wells marked as the ‘0’ time point to precipitate proteins and prevent compound from biotransformation. Plates were incubated in a thermostatic shaker at 37 °C while shaken at 350 rpm. […] Samples were analyzed using an LC-MS technique.

Data set [7] is described as follows: BBB PAMPA assay (porcine brain lipids). A general note: PAMPA measures passive passage across an artificial lipid membrane.
Details of data set [8]: method as in PMID 29513114. The note with it: cited from earlier work.
Details of data set [9]: method as in PMID 25755050. The following applies: compared with morphine; cited from earlier work.
Details of data set [10]: method as in PMID 25755050. The note with it: cited from earlier work.
Data set [11] relates to MOP. The note with it: MOP agonist activity; read-out: IC50 in the GPI assay; cited from earlier work.
Data set [12] deals with DOP. The note with it: read-out: IC50 in the MVD assay; DOP agonist activity; cited from earlier work.

As usually defined, the Ki is a dissociation constant, usually derived from enzyme kinetics or from competition with a known ligand. One may read the EC50 as the concentration at which the effect is half-maximal. Usually Emax stands for the size of the effect at its maximum, as opposed to the concentration needed. By IC50 is commonly meant the concentration at which inhibition is half-maximal.

Where two headings read alike, the source gives them in different places. Where a SMILES comes first, the peptide text is derived from it. Bridges are numbered along the chain shown (N, C = ends). Triazole bridges read from a SMILES are 1,4-linked. [ ]: non-standard residue; d: D form. dDap(N3) = [N-]=[N+]=NC[C@@H](N)C(=O)O; dPra = C#CC[C@@H](N)C(=O)O

As for `CC1(C)SSC(C)(C)[C@@H](NC(=O)[C@@H](N)Cc2ccc(O)cc2)C(=O)NCC(=O)N[C@@H](Cc2ccccc2)C(=O)N[C@H]1C(=O)O` [DPDPE, (D-Pen^2,D-Pen^5)-Enkephalin], the “antinociceptive effect (nociceptive threshold), hot plate” value in data set [1] is “ineffective”. For the same compound, the “antinociceptive effect, formalin test, early and late phase” value in [2] is “slight but not significant antinociceptive effect”. The “antinociception after i.c.v. administration” value in data set [3] (i.c.v.) is “slightly active until 45 min”. Also, the “antinociception after s.c. administration” value in [3] (s.c.) is “completely inactive”.
For the compound `NC(=O)[C@H]1Cn2cc(nn2)C[C@@H](NC(=O)[C@@H](N)Cc2ccc(O)cc2)C(=O)NCC(=O)N[C@@H](Cc2ccccc2)C(=O)N1` [NOVA1, H-Tyr-c[DPra-Gly-Phe-DAza]-NH2 triazole] (H-Y[dPra]GF[dDap(N3)]-NH2; triazole 2-5), the Ki in data set [4] was greater than 3330 nM. In addition, in [5], the EC50 was greater than 3330 nM and the Emax amounted to 56.7 ± 5.4%.
The compound `NC(=O)[C@H]1Cc2cn(nn2)C[C@@H](NC(=O)[C@@H](N)Cc2ccc(O)cc2)C(=O)NCC(=O)N[C@@H](Cc2ccccc2)C(=O)N1` [NOVA2, H-Tyr-c[DAza-Gly-Phe-DPra]-NH2 triazole] (H-Y[dDap(N3)]GF[dPra]-NH2; triazole 2-5) came in with a Ki in data set [4] greater than 3330 nM. In addition, in data set [5], the half-maximal effective concentration (EC50) is greater than 3330 nM and the Emax is 68.3 ± 5%. Moreover, the half-life at 5 μM in data set [6] was greater than 4 h. Besides, in data set [7] (PAMPA), the “Mean (%) Mass balance” value is given as 102.22% and the “Pe value relative to negative control theophylline” value is “two-fold higher”. In data set [7] (PAMPA BBB permeation class), the Classification entry is on record as “Low permeation (Pe<2.0→lowpermeation)”.
Regarding Dmt-c[D-Lys-Phe-p-CF3-Phe-Asp]NH2 [F18], in data set [8] (PAMPA BBB permeation class), the Classification entry is “Low permeation (Pe<2.0→lowpermeation)”. In data set [8] (PAMPA), the “Mean (%) Mass balance” value is given as 95.75%.
Regarding Tyr-c^2,4[DLys-Phe-Dab]-CH2CH2NHCONH2, the antinociceptive response result in [9] is “stronger antinociceptive response than that of morphine”. In addition, the enzymatic degradation entry in [10] is listed as “resistant to enzymatic degradation”.
Take “cyclo(N^ε,N^β’-carbonyl-D-Lys^2,Dap^5)-enkephalinamide”: the IC50 is 0.21 nM in [11] and 0.65 nM in [12].
